The source made the active and inactive calls.
Legend:
[1] = tested on: HEK293; assay: cells; assay type: functional, cell-based; conditions: Homo sapiens
[2] = target: Genome polyprotein (dengue virus type 2, UniProt P29990); assay: flavivirus cap methylation enzyme inhibition – biochemical, confirmation dose response, primary screen (AID 588689); assay type: functional
[3] = target: T1, Nuclear receptor subfamily 0 group B member 1 (Homo sapiens, UniProt P51843); assay: Luminescence-based cell-based high throughput dose response assay for inhibitors of the orphan nuclear receptor subfamily 0, group B, member 1 (DAX1; NR0B1). [Related pubchem assays (depositor defined):AID504766, AID504790]; assay type: functional
T1 sequence (P51843 whole entry): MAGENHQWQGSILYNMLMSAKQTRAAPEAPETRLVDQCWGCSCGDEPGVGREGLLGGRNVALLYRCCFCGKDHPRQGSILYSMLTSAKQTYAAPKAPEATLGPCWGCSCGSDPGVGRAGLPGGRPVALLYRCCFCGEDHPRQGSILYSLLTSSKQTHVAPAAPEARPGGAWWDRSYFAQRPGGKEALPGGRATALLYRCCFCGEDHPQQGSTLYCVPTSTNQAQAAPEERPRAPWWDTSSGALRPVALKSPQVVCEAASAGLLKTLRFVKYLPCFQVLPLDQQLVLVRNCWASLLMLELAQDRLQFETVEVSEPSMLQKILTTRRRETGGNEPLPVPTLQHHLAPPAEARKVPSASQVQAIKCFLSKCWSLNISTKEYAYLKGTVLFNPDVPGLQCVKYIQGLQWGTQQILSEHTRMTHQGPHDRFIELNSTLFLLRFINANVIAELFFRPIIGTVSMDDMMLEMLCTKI

[4] = target: T2, CAAX prenyl protease 2 (Homo sapiens, UniProt Q9Y256); assay: inhibition of Ras-converting CAAX protease Rce1 – biochemical, yeast membranes, quenched-peptide fluorescence, cherry-pick, dose response (AID 588849)
T2 sequence (Q9Y256 whole entry): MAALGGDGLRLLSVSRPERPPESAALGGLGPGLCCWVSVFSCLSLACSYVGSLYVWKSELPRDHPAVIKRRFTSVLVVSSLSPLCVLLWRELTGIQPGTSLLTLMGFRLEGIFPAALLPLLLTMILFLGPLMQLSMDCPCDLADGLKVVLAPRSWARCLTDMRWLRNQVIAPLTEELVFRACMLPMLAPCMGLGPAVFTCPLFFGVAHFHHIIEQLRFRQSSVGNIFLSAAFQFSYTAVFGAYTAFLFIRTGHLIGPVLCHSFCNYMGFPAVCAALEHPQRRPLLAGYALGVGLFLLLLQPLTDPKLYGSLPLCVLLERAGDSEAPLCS

[5] = target: T3, Lysine-specific demethylase 4C (Homo sapiens, UniProt Q9H3R0); assay: inhibition of JMJD2C H3K9me3 demethylation – biochemical, DELFIA europium, cherry-picked samples, dose response (AID 488835); assay type: functional
T3 sequence (Q9H3R0 whole entry): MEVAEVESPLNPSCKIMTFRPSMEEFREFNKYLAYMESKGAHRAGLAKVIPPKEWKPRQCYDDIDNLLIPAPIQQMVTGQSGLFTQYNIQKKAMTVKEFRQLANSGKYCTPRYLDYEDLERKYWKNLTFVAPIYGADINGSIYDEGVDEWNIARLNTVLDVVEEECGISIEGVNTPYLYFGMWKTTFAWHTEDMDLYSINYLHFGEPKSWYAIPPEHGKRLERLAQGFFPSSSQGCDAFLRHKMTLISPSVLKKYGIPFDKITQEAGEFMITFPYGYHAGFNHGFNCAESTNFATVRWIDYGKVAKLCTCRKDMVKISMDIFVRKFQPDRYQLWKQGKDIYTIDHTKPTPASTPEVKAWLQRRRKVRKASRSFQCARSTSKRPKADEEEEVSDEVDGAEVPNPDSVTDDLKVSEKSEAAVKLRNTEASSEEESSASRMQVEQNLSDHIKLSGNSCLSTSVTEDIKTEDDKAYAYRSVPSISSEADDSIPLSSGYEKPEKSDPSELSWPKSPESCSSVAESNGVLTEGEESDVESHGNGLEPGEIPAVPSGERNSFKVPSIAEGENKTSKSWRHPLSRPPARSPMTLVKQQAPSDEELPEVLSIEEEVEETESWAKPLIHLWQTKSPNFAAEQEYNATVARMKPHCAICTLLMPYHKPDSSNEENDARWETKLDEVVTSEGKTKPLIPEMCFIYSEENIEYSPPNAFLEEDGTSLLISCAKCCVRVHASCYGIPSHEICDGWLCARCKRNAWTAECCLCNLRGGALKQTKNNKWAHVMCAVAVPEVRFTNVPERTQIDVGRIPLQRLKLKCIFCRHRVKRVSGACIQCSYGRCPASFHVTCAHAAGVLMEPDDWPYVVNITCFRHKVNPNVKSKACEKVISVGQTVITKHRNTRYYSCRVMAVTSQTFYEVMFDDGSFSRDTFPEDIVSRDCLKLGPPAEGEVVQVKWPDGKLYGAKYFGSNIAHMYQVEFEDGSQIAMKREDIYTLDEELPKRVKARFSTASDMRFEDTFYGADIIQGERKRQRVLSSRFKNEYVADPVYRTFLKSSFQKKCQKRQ

[6] = target: Eukaryotic translation initiation factor 4E (Mus musculus, UniProt P63073); assay: blockers of eIF4G binding by eIF4E – biochemical, TR-FRET, dose response (AID 855); assay type: functional;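 also: potency for disrupting eIF4E binding to eIF4GI seen as loss of FRET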
Eukaryotic translation initiation factor 4E, sequence (P63073 whole entry): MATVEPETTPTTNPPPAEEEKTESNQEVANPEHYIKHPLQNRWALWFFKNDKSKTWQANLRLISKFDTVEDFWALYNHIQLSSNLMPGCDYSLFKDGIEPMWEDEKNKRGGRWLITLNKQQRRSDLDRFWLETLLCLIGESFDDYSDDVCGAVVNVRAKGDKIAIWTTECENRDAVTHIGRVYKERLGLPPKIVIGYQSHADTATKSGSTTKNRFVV

[7] = decrease of insulin promoter-GFP reporter – imaging, high-content screening, mouse beta cells (AID 1628); assay type: functional; conditions: MIN6
[8] = tested on: HEK293; assay: cells; assay type: functional, cell-based; conditions: Homo sapiens; remark: listed apart in the source
[9] = tested on: HEK293; assay: inhibition of NOD1-driven NF-kB reporter – cell-based, luminescence, uHTS, primary screen (AID 1578); assay type: functional; conditions: Homo sapiens
[10] = reduction of Shn3 3'UTR-driven luciferase in osteoblasts – cell-based, Clone20 osteoblasts, firefly luciferase, cherry-picked, dose response (AID 624132); assay type: functional;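 also: firefly luciferase luminescence from reporter carrying the Shn3 3'UTR in osteoblasts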
[11] = tested on: HEK293; assay: NOD2 signaling inhibitors in MDP-stimulated cells, cell-based, uHTS, luminescence (AID 2001); assay type: functional; conditions: Homo sapiens
[12] = tested on: HEK293; assay: cells; assay type: functional, cell-based; conditions: Homo sapiens; remark: listed apart in the source
[13] = loss of viability in HepG2 cells – cell-based, CellTiter-Glo, cherry-picked, cytotoxicity control for Shn3 inhibitor project, dose response (AID 624134); assay type: functional
[14] = non-specific 3'UTR reporter inhibition in Clone20-Shn3RL – cell-based, Renilla luciferase, cherry-picked, counter-screen for Shn3 inhibitor project, dose response (AID 624133); assay type: functional
[15] = MIN6 cell viability loss – mouse insulinoma, cytotoxicity control, dose response (AID 2122); assay type: functional;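 also: confirmatory high-throughput counterscreen run to flag cytotoxic compounds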
[16] = tested on: INS1; assay: INS-1E survival protection against cytokine death – cell-based, luminescence, retest, dose response (AID 449756); assay type: functional; conditions: Rattus norvegicus;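 also: cell death triggered by IL-1 beta plus TNF-alpha plus IFN-gamma mixture; protective hits raise ATP signal compared with cytokine alone wells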
[17] = target: Alkaline phosphatase, placental type (Homo sapiens, UniProt P05187); assay: human placental alkaline phosphatase inhibition – biochemical, luminescence, confirmation (AID 1512); assay type: functional
Alkaline phosphatase, placental type, sequence (P05187 whole entry): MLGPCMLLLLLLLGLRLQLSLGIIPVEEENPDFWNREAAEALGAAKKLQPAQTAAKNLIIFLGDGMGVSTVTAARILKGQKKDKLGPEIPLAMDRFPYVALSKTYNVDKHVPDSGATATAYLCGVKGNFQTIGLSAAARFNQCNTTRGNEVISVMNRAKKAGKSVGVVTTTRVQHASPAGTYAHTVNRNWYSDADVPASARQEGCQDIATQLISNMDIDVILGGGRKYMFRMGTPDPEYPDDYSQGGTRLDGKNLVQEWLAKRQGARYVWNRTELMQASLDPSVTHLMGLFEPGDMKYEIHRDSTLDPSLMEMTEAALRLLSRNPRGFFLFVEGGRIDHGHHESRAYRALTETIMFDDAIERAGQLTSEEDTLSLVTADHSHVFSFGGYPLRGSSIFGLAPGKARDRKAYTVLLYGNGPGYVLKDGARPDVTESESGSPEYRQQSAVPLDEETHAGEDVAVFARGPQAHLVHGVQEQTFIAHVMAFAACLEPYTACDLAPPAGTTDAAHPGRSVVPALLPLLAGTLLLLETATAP

[18] = target: T4, Zinc finger protein mex-5 (Caenorhabditis elegans, UniProt Q9XUB2); assay: potency of MEX-5 RNA-binding blockers – biochemical, C. elegans, fluorescence polarization, dose response (AID 1960)
T4 sequence (Q9XUB2 whole entry): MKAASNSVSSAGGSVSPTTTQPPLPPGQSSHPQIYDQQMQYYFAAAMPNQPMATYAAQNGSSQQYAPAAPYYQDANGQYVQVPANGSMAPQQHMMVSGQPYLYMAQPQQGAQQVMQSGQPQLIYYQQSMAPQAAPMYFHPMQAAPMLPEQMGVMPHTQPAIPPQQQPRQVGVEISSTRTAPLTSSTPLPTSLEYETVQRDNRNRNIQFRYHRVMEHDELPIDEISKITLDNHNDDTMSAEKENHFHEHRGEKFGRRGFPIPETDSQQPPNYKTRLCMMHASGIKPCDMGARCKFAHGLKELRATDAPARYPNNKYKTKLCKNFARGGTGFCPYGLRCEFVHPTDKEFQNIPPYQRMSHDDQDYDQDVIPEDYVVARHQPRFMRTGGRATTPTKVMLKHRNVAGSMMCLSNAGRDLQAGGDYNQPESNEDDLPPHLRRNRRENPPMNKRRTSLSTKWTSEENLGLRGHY

[19] = target: T5, RNA-binding protein pos-1 (Caenorhabditis elegans, UniProt G5EF15); assay: disruptors of C. elegans POS-1 RNA interaction – biochemical, fluorescence polarization, dose response (AID 1964);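 also: purified POS-1 fused to maltose binding protein made in E. coli; potency of compounds blocking POS-1 binding to fluorescent RNA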
T5 sequence (G5EF15 whole entry): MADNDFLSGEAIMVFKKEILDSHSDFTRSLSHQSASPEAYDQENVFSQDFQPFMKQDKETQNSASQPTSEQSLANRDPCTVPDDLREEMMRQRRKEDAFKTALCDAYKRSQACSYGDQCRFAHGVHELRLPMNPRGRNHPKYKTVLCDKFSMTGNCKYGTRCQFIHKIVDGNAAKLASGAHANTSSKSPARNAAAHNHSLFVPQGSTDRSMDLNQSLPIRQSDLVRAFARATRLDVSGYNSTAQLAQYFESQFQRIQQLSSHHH

[20] = target: Trypsin (Sus scrofa, UniProt P00761); assay: trypsin protease activity blockade – biochemical, quenched peptide fluorescence, cherry-pick, selectivity assay for Rce1 protease inhibitor project, dose response (AID 488789)
Trypsin, sequence (P00761 whole entry): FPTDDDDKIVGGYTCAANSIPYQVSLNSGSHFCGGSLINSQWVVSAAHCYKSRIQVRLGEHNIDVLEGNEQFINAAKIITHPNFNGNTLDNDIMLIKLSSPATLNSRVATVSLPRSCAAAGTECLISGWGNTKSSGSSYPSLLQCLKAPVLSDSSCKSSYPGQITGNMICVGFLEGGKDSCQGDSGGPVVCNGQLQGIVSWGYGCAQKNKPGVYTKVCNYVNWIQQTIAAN

[21] = target: T6, Coagulation factor XII (Homo sapiens, UniProt P00748); assay type: functional;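 also: activated factor XIIa alpha cleaving a fluorogenic AMC peptide substrate; inhibitor potency from loss of enzyme activity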
T6 sequence (P00748 whole entry): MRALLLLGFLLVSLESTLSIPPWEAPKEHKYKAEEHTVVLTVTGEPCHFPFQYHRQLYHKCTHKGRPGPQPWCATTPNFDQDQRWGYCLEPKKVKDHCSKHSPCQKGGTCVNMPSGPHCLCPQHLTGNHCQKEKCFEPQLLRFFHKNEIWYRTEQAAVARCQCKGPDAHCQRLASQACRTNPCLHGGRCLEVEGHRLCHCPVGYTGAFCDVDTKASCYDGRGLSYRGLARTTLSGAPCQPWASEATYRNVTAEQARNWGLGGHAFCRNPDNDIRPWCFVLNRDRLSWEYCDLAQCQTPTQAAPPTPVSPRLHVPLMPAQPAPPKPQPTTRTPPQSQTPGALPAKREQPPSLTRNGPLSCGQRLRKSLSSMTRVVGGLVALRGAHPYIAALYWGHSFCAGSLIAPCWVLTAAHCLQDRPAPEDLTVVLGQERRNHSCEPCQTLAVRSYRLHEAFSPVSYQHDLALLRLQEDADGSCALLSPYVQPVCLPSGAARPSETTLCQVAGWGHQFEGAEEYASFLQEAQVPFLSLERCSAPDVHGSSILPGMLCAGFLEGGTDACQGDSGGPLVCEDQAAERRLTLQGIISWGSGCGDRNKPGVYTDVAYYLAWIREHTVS

[22] = target: Glucose-6-phosphate 1-dehydrogenase (Homo sapiens, UniProt P11413); assay: inhibition of Homo sapiens G6PD, dose series – biochemical, fluorescence, selectivity assay for P. falciparum G6PD inhibitor project, dose response (AID 504792); assay type: functional
Glucose-6-phosphate 1-dehydrogenase, sequence (P11413 whole entry): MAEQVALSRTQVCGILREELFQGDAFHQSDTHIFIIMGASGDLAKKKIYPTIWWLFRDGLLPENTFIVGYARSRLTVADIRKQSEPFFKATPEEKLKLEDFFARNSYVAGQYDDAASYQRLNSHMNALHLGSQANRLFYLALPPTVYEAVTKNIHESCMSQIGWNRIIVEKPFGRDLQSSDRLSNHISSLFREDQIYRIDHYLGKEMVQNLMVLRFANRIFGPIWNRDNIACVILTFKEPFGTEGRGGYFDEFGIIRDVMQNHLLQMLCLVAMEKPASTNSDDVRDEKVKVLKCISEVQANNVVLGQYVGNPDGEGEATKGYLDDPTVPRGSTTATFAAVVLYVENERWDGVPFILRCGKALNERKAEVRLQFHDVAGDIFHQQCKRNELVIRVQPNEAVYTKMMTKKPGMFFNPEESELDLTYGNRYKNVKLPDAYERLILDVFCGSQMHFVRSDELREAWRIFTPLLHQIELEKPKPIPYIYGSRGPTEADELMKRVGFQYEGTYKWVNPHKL

[23] = target: Large T antigen (Simian virus 40, UniProt P03070); assay type: functional, Betapolyomavirus macacae;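 also: Confirmatory-stage PubChem screen for compounds that inhibit SV40 T antigen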
Large T antigen, sequence (P03070 whole entry): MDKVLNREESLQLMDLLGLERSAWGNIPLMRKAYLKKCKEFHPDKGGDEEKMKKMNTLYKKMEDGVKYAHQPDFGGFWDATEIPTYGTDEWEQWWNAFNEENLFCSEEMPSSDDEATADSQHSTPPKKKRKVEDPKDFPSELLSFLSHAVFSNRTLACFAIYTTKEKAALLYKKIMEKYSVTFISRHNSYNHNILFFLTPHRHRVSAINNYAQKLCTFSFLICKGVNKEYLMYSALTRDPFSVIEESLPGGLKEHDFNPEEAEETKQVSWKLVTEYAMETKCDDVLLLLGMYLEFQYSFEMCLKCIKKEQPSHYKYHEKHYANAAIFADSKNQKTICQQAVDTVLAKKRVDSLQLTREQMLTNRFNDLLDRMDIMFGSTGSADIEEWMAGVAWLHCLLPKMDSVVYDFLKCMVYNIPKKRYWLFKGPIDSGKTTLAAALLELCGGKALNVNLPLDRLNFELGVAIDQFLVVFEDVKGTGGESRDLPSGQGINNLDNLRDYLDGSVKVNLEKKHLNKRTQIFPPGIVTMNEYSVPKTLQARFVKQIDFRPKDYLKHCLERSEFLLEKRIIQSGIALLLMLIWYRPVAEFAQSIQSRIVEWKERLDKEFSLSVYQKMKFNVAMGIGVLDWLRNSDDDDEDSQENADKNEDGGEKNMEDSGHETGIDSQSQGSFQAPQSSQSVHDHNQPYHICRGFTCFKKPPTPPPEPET

[24] = target: DNA dC->dU-editing enzyme APOBEC-3A (Homo sapiens, UniProt P31941); assay: A3A deaminase inhibition for selectivity – biochemical, dose response (AID 504722); assay type: functional
DNA dC->dU-editing enzyme APOBEC-3A, sequence (P31941 whole entry): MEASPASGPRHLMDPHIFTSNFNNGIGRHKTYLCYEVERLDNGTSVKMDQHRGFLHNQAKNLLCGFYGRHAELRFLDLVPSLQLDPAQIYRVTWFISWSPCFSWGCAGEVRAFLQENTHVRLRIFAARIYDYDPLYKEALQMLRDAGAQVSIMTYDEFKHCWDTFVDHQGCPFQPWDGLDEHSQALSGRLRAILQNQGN

[25] = target: DNA dC->dU-editing enzyme APOBEC-3G (Homo sapiens, UniProt Q9HC16); assay: Dose Response confirmation of small molecule APOBEC3G DNA Deaminase Inhibitors via a fluorescence-based single-stranded DNA deaminase assay. [Related pubchem assays (depositor defined):AID493012, AID493028]; assay type: functional
DNA dC->dU-editing enzyme APOBEC-3G, sequence (Q9HC16 whole entry): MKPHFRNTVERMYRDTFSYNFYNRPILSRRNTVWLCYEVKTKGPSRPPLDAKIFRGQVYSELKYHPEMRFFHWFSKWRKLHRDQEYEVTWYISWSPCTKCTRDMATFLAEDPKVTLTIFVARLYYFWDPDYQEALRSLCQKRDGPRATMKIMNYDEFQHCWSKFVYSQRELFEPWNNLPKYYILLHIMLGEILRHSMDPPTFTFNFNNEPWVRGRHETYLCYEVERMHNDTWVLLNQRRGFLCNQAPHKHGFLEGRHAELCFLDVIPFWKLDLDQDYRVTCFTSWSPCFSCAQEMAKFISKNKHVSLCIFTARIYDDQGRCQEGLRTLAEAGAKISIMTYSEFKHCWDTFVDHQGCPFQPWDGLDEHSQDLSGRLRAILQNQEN

[26] = target: FAD-linked sulfhydryl oxidase ALR (Homo sapiens, UniProt P55789); assay: ALR-catalysed DTT oxidation blockers – biochemical, H2O2 detection, luminescence, cherry-pick, dose response (AID 493248)
FAD-linked sulfhydryl oxidase ALR, sequence (P55789 whole entry): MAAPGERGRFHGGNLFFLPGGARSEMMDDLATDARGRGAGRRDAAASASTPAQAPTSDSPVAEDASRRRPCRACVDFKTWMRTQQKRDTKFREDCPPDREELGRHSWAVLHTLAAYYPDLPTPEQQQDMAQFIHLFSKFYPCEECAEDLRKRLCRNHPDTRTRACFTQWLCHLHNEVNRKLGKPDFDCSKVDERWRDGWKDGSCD

Genome polyprotein, sequence (P29990 2492-3391 limits assumed): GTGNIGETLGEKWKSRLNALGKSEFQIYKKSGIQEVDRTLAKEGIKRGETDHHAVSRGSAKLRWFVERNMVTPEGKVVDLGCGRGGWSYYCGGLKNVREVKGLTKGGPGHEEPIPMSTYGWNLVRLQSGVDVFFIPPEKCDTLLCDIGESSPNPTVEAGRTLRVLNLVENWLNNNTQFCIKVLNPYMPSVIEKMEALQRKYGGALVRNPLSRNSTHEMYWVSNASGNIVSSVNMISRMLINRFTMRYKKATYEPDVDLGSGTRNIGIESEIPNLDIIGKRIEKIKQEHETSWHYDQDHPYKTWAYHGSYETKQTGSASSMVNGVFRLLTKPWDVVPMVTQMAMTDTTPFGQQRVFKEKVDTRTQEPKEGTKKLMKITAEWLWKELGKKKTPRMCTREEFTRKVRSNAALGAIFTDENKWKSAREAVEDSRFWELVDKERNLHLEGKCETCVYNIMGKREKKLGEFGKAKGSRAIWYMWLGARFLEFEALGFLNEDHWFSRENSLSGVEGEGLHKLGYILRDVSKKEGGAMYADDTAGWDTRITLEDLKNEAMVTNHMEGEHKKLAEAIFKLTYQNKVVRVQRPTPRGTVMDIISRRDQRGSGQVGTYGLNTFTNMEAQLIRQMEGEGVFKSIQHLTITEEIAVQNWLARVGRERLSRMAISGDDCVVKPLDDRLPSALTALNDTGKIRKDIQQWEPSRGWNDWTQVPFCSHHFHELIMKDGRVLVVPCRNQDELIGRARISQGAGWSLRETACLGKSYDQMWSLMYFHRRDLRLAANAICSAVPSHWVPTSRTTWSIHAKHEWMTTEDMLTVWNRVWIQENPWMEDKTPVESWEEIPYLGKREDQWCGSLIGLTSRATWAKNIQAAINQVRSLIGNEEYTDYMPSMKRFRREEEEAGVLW

## CCOc1cc(/C=C2\C(=O)NC(=O)N(C)C2=O)cc([N+](=O)[O-])c1O
[1]
  IC50: 51.7 µM (inactive)
[2]
  IC50: 19.9 µM (active)
[3]
  IC50: > 67.5 µM (inactive)

## O=C(O)c1ccc(N/N=C/c2ccc(-c3ccccc3Cl)o2)cc1
[4]
  AC50: 54.5 µM (active)

## COc1ccc(CC2C(=O)NC(=O)N(c3ccccc3)C2=O)c(OC)c1 (stereo unspecified)
[5]
  AC50: 7.62 µM (active)
[6]
  IC50: > 64 µM (inactive)

## CCN(CC)N=Nc1cccc(NC(C)=O)c1
[1]
  IC50: > 67.5 µM (inactive)
[3]
  IC50: > 67.5 µM (inactive)

## CCOc1cc(C=C2C(=O)NC(=O)NC2=O)cc([N+](=O)[O-])c1O
[5]
  AC50: 2.49 µM (active)

## CCN1CCN(Cc2ccc(NC(=O)c3ccc(C)c(NC(=O)C(=O)c4c[nH]c5ccccc45)c3)cc2C(F)(F)F)CC1
[7]
  IC50: 2.15 µM (active)
[8]
  IC50: 4.96 µM (active)
[9]
  EC50: 17.2 µM (active)
[10]
  AC50: 7.49 µM (active)
[11]
  IC50: 13.1 µM (inactive)
[12]
  IC50: 18.5 µM (active)
[13]
  AC50: 9.8 µM (active)
[14]
  AC50: 3.42 µM (active)
[15]
  IC50: 1.09 µM (active)

## COc1ccc(CNCC(=O)Nc2sccc2C#N)cc1
[5]
  AC50: 25 µM (active)

## O=[N+]([O-])c1ccc(N2CCN(C(S)=NCc3ccc(Cl)cc3)CC2)cc1
[7]
  IC50: 1.85 µM (active)
[16]
  AC50: 6.14 µM (active)
[15]
  IC50: 2.83 µM (active)

## CCOCCCNC(=O)CCC(=O)NNc1nc2ccccc2c2nc(C)nn12
[17]
  IC50: > 100 µM (inactive)
[18]
  EC50: 1.45 µM (active)
[19]
  EC50: > 300 µM (not active)

## NS(=O)(=O)c1ccc(CCNC(=O)c2ccc3ccccc3n2)cc1
[4]
  AC50: 4.74 µM (active)
[20]
  AC50: 4.75 µM (active)

## Cc1ccn(CC(=O)O)c(=O)c1
[21]
  IC50: > 50 µM (inactive)

## Cc1cc(C)nc(SSc2nc(C)cc(C)n2)n1
[22]
  IC50: > 80 µM (inactive)
[23]
  IC50: 28.2 µM (active)
[24]
  IC50: > 100 µM (inactive)
[25]
  IC50: 5.1 µM (active)

## Cc1ccc(NC(=O)CCn2cccc2)cc1C
[21]
  IC50: > 50 µM (inactive)

## COc1cc(/C=N/n2c(S)nnc2COc2ccccc2)cc(Br)c1O
[24]
  IC50: > 100 µM (inactive)
[26]
  AC50: 2.65 µM (active)
[25]
  IC50: 2.19 µM (active)

— ChEMBL document CHEMBL1201862, “PubChem BioAssay data set” (2004)
